Measurements taken from ChEMBL document CHEMBL3399939, “Synthetic studies of five-membered heteroaromatic derivatives as potassium-competitive acid blockers (P-CABs)” (Bioorg Med Chem Lett, 2015).

What was measured:
Sus scrofa = species: Sus scrofa; assay: Inhibition of K+-stimulated H(+)/K(+) ATPase in porcine gastric mucosal microsomal fraction assessed as reduction in inorganic phosphate release at 10 uM incubated at 37 degC for 30 mins in presence of ATP by malachine green dye based colorimetry; assay type: microsomes; details: Gastric mucosa
[1] = Lipophilicity, log D of the compound; assay type: physicochemical; details: octanol/water
[2] = Inhibition of K+-stimulated H(+)/K(+) ATPase in porcine gastric mucosal microsomal fraction assessed as reduction in inorganic phosphate release incubated at 37 degC for 30 mins in presence of ATP by malachine green dye based colorimetry; assay type: microsomes, Sus scrofa, Gastric mucosa

| inhibition (Sus scrofa) | logD [1] | IC50 [2] | Structure (SMILES) |
| --- | --- | --- | --- |
| 33.2% |  |  | CNCc1cc(-c2ccccc2)c(S(=O)(=O)c2ccc(C)cc2)o1 |
|  | 1.9 | 150 nM | CNCc1cc(S(=O)(=O)c2ccccc2)c(-c2ccccc2)s1 |
| 2% |  |  | CNCc1nc(S(=O)(=O)c2ccccc2)c(-c2ccccc2)s1 |
|  | 0 | 99 nM | CNCc1cn(S(=O)(=O)c2ccc(C)cc2)c(-c2ccccc2)n1 |
|  | 2.1 | 170 nM | CNCc1nc(-c2ccccc2)c(S(=O)(=O)c2ccccc2)s1 |
|  | 0.4 | 130 nM | CNCc1cc(S(=O)(=O)c2ccccc2)n(-c2ccccc2)c1 |
|  | 1.8 | 1000 nM | CNCc1cc(S(=O)(=O)c2ccccc2)c(-c2ccccc2)o1 |

The remaining lines, values behind:

| Structure (SMILES) | inhibition (Sus scrofa) | logD [1] | IC50 [2] |
| --- | --- | --- | --- |
| CNCc1cc(S(=O)(=O)c2ccccc2)c(-c2ccccc2)[nH]1 | 19.8% |  |  |
| CNCc1cc(S(=O)(=O)c2ccccc2)n(-c2ccccc2)n1 |  | 1.1 | 68 nM |
| CNc1nc(-c2ccccc2)c(S(=O)(=O)c2ccccc2)s1 | 3.6% |  |  |
| CNCc1cc(-c2ccccc2)c(S(=O)(=O)c2ccccc2)s1 |  | 2.1 | 52 nM |
| CCNc1nc(-c2ccccc2)c(S(=O)(=O)c2ccccc2)s1 | 6.9% |  |  |
